Patent US9156801B2, “2-substituted oleanolic acid derivative, method preparing for same, and application thereof” (HANGZHOU BENSHENG PHARMACEUTICAL CO., LTD., priority 2011, dated 2015)
Values after ≈ are worked out from the molar mass of the structure shown.

What was measured:
[1] = tested on: H9 cell line; assay: leukemia cell growth inhibition, MTT; format: cell-based; details: Homo sapiens; for IC50: H9, 72 h; for inhibition at 16 µg/mL: H9, 16 μg/mL compound, 72 h, read-out: IR (cell proliferation inhibition rate)
Source text: (§1) Leukemia cell lines: leukemia cell lines: K562/adr (drug-resistant, chronic myeloid leukemia, CML), NB4 (acute promyelocytic leukemia, AML), Kasumi-1 (acute myeloid leukemia M2 type, AML-M2), Jurkat (acute lymphoblastic leukemia, ALL), all of which are donated by Cancer Research Institute of Zhejiang University, China; and H9 (acute lymphoblastic leukemia, ALL), which is purchased from China Center for Type Culture Collection (CCTCC).
(§2) Obtaining 6000 well-growing leukemia cells and inoculating them into wells of a 96-well cell culture plate. The culture medium is the 1640 cell culture medium containing 10% fetal bovine serum. After adding the 2-substituted oleanolic acid derivatives of different concentrations and mixing uniformly, placing the plate in a carbon dioxide cell incubator (5% CO2) at 37° C. and incubated for 72 hours. Then the relative number of viable cells is determined by MTT method. In this experiment, cell proliferation inhibition rate in control group (not treated with any compound) is set as 0%.

[2] = tested on: Jurkat cell line; assay: leukemia cell growth inhibition, MTT; format: cell-based; details: Homo sapiens, 72 h; for inhibition at 16 µg/mL: 16 μg/mL compound, read-out: IR (cell proliferation inhibition rate)
Source text: as §1, §2

[3] = tested on: K562/adr cell line; assay: leukemia cell growth inhibition, MTT; format: cell-based; details: Homo sapiens, 72 h; for IC50: K562/Adr; for inhibition at 16 µg/mL: K562/adr, 16 μg/mL compound, read-out: IR (cell proliferation inhibition rate)
Source text: as §1, §2

[4] = tested on: Kasumi-1 cell line; assay: leukemia cell growth inhibition, MTT; format: cell-based; details: Homo sapiens; for inhibition at 16 µg/mL: Kasumi-1, 16 μg/mL compound, 72 h, read-out: IR (cell proliferation inhibition rate); for IC50: Kasumi-1, 72 h
Source text: as §1, §2

[5] = tested on: NB4 cell line; assay: leukemia cell growth inhibition, MTT; format: cell-based; details: Homo sapiens, NB-4; for inhibition at 16 µg/mL: NB4, 16 μg/mL compound, 72 h, read-out: IR (cell proliferation inhibition rate); for IC50: NB4, 72 h
Source text: as §1, §2

[6] = tested on: RPMI8226 cell line; assay: multiple myeloma cell growth inhibition, MTT; format: cell-based; details: Homo sapiens, RPMI-8226; for inhibition at 16 µg/mL: RPMI8226, 16 μg/mL compound, 72 h, read-out: IR (cell proliferation inhibition rate); for IC50: RPMI8226, 72 h
Protocol: Multiple myeloma cell lines: RPMI8226 (multiple myeloma), purchased from Fuxiang Bio-tech Co. Ltd., Shanghai, China.
Obtaining 6000 well-growing cells as above and inoculating them into wells of a 96-well cell culture plate. The culture medium is the 1640 cell culture medium containing 10% fetal bovine serum. After adding the 2-substituted oleanolic acid derivatives of different concentrations and mixing uniformly, placing the plate in a carbon dioxide cell incubator (5% CO2) at 37° C. and incubated for 72 hours. Then the relative number of viable cells is determined by MTT method. In this experiment, cell proliferation inhibition rate in control group (not treated with any compound) is set as 0%.

[7] = tested on: Hep G2 cell line; assay: solid tumor cell growth inhibition, MTT; format: cell-based, human; details: Homo sapiens; for inhibition at 16 µg/mL: HepG2, 72 h, Hep G2, 16 μg/mL compound, 72 h, read-out: IR (cell proliferation inhibition rate); for IC50: HepG2, Hep G2, 72 h
Protocol: (§3) Hep-2 (laryngeal carcinoma), A549 (human lung cancer), CaES-17 (esophageal cancer cell), PC-3 (prostate cancer), CNE (nasopharyngeal carcinoma cell), and SK-OV-3 (ovarian cancer cell), all of which are purchased from China Center For Type Culture Collection; RKO (human colon adenocarcinoma cell), MGC 803 (human gastric cancer cell), MG63 (osteosarcoma) and U87 MG (malignant glioma cell), all of which are purchased from Fuxiang Bio-tech Co. Ltd., Shanghai, China; PANC-1 (pancreatic cancer), Hep G2 (human liver cancer cell), Becap37 (human breast cancer cell), and Hela (human cervical cancer cell), all of which are donated by Cancer Research Institute of Zhejiang University, China.
(§4) Obtaining 4000 well-growing human solid tumor cells and inoculating them into wells of a 96-well cell culture plate. The culture medium is DMEM High Glucose cell culture medium containing 10% fetal bovine serum. The plate is placed in a carbon dioxide cell incubator (5% CO2) at 37° C. for 24 hours. After adding the 2-substituted oleanolic acid derivatives of different concentrations and mixing uniformly, the plate is placed in a carbon dioxide cell incubator (5% CO2) at 37° C. and incubated for 72 hours. Then the relative number of the living cells is determined by MTT method. In this experiment, the cell proliferation inhibition rate in control group (not treated with any compound) is set as 0%.

[8] = tested on: A549 cell line; assay: solid tumor cell growth inhibition, MTT; format: cell-based; details: Homo sapiens; for IC50: A549, 72 h; for inhibition at 16 µg/mL: A549, 16 μg/mL compound, 72 h, read-out: IR (cell proliferation inhibition rate)
Protocol: as §3, §4

[9] = tested on: Becap37 cell line; assay: solid tumor cell growth inhibition, MTT; format: cell-based; details: Homo sapiens; for inhibition at 16 µg/mL: Becap37, 16 μg/mL compound, 72 h, read-out: IR (cell proliferation inhibition rate); for IC50: Becap37, 72 h
Protocol: as §3, §4

[10] = tested on: CNE cell line; assay: solid tumor cell growth inhibition, MTT; format: cell-based; details: Homo sapiens, 72 h; for inhibition at 16 µg/mL: 16 μg/mL compound, read-out: IR (cell proliferation inhibition rate)
Protocol: as §3, §4

[11] = tested on: CaES-17 cell line; assay: solid tumor cell growth inhibition, MTT; format: cell-based; details: Homo sapiens, CaEs17; for inhibition at 16 µg/mL: CaES-17, 16 μg/mL compound, 72 h, read-out: IR (cell proliferation inhibition rate); for IC50: CaES-17, 72 h
Protocol: as §3, §4

[12] = tested on: Hela cell line; assay: solid tumor cell growth inhibition, MTT; format: cell-based; details: Homo sapiens, 72 h; for IC50: HeLa; for inhibition at 16 µg/mL: Hela, 16 μg/mL compound, read-out: IR (cell proliferation inhibition rate)
Protocol: as §3, §4

[13] = tested on: Hep-2 cell line; assay: solid tumor cell growth inhibition, MTT; format: cell-based; details: Homo sapiens; for IC50: HEp-2, 72 h; for inhibition at 16 µg/mL: Hep-2, 16 μg/mL compound, 72 h, read-out: IR (cell proliferation inhibition rate)
Protocol: as §3, §4

[14] = tested on: MG-63 cell line; assay: solid tumor cell growth inhibition, MTT; format: cell-based; details: Homo sapiens; for IC50: MG-63, 72 h; for inhibition at 16 µg/mL: MG-63, 16 μg/mL compound, 72 h, read-out: IR (cell proliferation inhibition rate)
Protocol: as §3, §4

[15] = tested on: MGC 803 cell line; assay: solid tumor cell growth inhibition, MTT; format: cell-based; details: Homo sapiens; for inhibition at 16 µg/mL: MGC 803, 16 μg/mL compound, 72 h, read-out: IR (cell proliferation inhibition rate); for IC50: MGC 803, 72 h
Protocol: as §3, §4

[16] = tested on: PANC-1 cell line; assay: solid tumor cell growth inhibition, MTT; format: cell-based; details: Homo sapiens; for IC50: PANC-1, 72 h; for inhibition at 16 µg/mL: PANC-1, 16 μg/mL compound, 72 h, read-out: IR (cell proliferation inhibition rate)
Protocol: as §3, §4

[17] = tested on: PC-3 cell line; assay: solid tumor cell growth inhibition, MTT; format: cell-based; details: Homo sapiens; for IC50: PC-3, 72 h; for inhibition at 16 µg/mL: PC-3, 16 μg/mL compound, 72 h, read-out: IR (cell proliferation inhibition rate)
Protocol: as §3, §4

[18] = tested on: RKO cell line; assay: solid tumor cell growth inhibition, MTT; format: cell-based; details: Homo sapiens, 72 h; for inhibition at 16 µg/mL: 16 μg/mL compound, read-out: IR (cell proliferation inhibition rate)
Protocol: as §3, §4

[19] = tested on: SK-OV-3 cell line; assay: solid tumor cell growth inhibition, MTT; format: cell-based; details: Homo sapiens; for IC50: SK-OV-3, 72 h; for inhibition at 16 µg/mL: SK-OV-3, 16 μg/mL compound, 72 h, read-out: IR (cell proliferation inhibition rate)
Protocol: as §3, §4

[20] = tested on: U87 MG cell line; assay: solid tumor cell growth inhibition, MTT; format: cell-based; details: Homo sapiens, U-87 MG, 72 h; for inhibition at 16 µg/mL: 16 μg/mL compound, read-out: IR (cell proliferation inhibition rate)
Protocol: as §3, §4

Compound	IC50 [1] [mg/L]	inhibition at 16 µg/mL [1] [%]	inhibition at 16 µg/mL [2] [%]	IC50 [2] [mg/L]	IC50 [3] [mg/L]	inhibition at 16 µg/mL [3] [%]	inhibition at 16 µg/mL [4] [%]	IC50 [4] [mg/L]	inhibition at 16 µg/mL [5] [%]	IC50 [5] [mg/L]	inhibition at 16 µg/mL [6] [%]	IC50 [6] [mg/L]	inhibition at 16 µg/mL [7] [%]	IC50 [7] [mg/L]	IC50 [8] [mg/L]	inhibition at 16 µg/mL [8] [%]	inhibition at 16 µg/mL [9] [%]	IC50 [9] [mg/L]	inhibition at 16 µg/mL [10] [%]	IC50 [10] [mg/L]	further results
CCC(C)CNC(=O)C1C[C@@]2(C)C(CC[C@]3(C)C2CC=C2C4CC(C)(C)CC[C@]4(C(=O)OC)CC[C@]23C)C(C)(C)C1=O (some centres unmarked) [BS-OA-008]	> 16	39.8	-33.8	> 16	8 (≈ 13.7 µM)	70.1	6.7	> 16	6.3	> 16	30	> 16	8.1	> 16	> 16	3.4	2.3	> 16	15.1	> 16	inhibition at 16 µg/mL [11]: -12.7%; IC50 [11]: > 16 mg/L; IC50 [12]: > 16 mg/L; inhibition at 16 µg/mL [12]: 0.5%; IC50 [13]: > 16 mg/L; inhibition at 16 µg/mL [13]: 3.5%; IC50 [14]: > 16 mg/L; inhibition at 16 µg/mL [14]: -12.1%; inhibition at 16 µg/mL [15]: -12.4%; IC50 [15]: > 16 mg/L; IC50 [16]: > 16 mg/L; inhibition at 16 µg/mL [16]: -4.6%; IC50 [17]: > 16 mg/L; inhibition at 16 µg/mL [17]: 12%; inhibition at 16 µg/mL [18]: -18.6%; IC50 [18]: > 16 mg/L; IC50 [19]: > 16 mg/L; inhibition at 16 µg/mL [19]: 14.3%; inhibition at 16 µg/mL [20]: 30.1%; IC50 [20]: > 16 mg/L
CCN(CC)CCNC(=O)C1C[C@@]2(C)C(CC[C@]3(C)C2CC=C2C4CC(C)(C)CC[C@]4(C(=O)OC)CC[C@]23C)C(C)(C)C1=O (some centres unmarked) [BS-OA-012]	3.05 (≈ 4.99 µM)	95	97	2.26 (≈ 3.7 µM)	1.09 (≈ 1.78 µM)	99	99.3	3.18 (≈ 5.21 µM)	99.2	2.79 (≈ 4.57 µM)	99	0.74 (≈ 1.21 µM)	> 96	2.36 (≈ 3.86 µM)	2.83 (≈ 4.63 µM)	97.4	98.4	4.42 (≈ 7.23 µM)	98.8	3.74 (≈ 6.12 µM)	inhibition at 16 µg/mL [11]: 99.1%; IC50 [11]: 1.91 mg/L (≈ 3.13 µM); IC50 [12]: 4.19 mg/L (≈ 6.86 µM); inhibition at 16 µg/mL [12]: 96.9%; IC50 [13]: 5.5 mg/L (≈ 9 µM); inhibition at 16 µg/mL [13]: 99.9%; IC50 [14]: 2.2 mg/L (≈ 3.6 µM); inhibition at 16 µg/mL [14]: 100%; inhibition at 16 µg/mL [15]: 100%; IC50 [15]: 2.56 mg/L (≈ 4.19 µM); IC50 [16]: 4.73 mg/L (≈ 7.74 µM); inhibition at 16 µg/mL [16]: 100%; IC50 [17]: 5.08 mg/L (≈ 8.32 µM); inhibition at 16 µg/mL [17]: 99.7%; inhibition at 16 µg/mL [18]: 97.6%; IC50 [18]: 2 mg/L (≈ 3.27 µM); IC50 [19]: 3.77 mg/L (≈ 6.17 µM); inhibition at 16 µg/mL [19]: 98.9%; inhibition at 16 µg/mL [20]: 98.5%; IC50 [20]: 2.56 mg/L (≈ 4.19 µM)
